Results on two substances are retold here after US20040082503A1, “Methods for treatment of diabetes using peptide analogues of insulin” (Neurocrine Biosciences, Inc., priority 1998, published 2004).

Experiment [1] has as its system Soluble NBI-6024 induced T cells (IL-2, IL-4, IL-5 production). Briefly: Cytokine production by NBI-6024 induced T cells (ELISA). Format: cell-based, NOD mouse. The conditions noted are these: for Cytokine IL-2: 48 h supernatant. How it is done: FIG. 18 is a histogram, showing a comparison of the cytokines produced by immune cells induced by A^16,19 (NBI-6024) peptide in the presence or absence of adjuvant. Groups of NOD mice were immunized with the NBI-6024 alone or emulsified with CFA. The cytokines IL-2 and IL-4, as indicated, were measured at 25 μM of NBI-6024 and expressed as pg/mL after subtracting the background values.
To determine the type of T cells produced following soluble administration of NBI-6024, the culture supernatants from immune lymphoid cells were removed 48 hours following the initiation of culture and the levels of various cytokines measured using standard ELISA technology. […] Within Table 8, values are expressed in pg/ml as mean of triplicates±SEM.
For orientation: An ELISA detects its analyte on a solid surface through an enzyme-linked reagent.

The next experiment has as its system DQ8 antigens. The experiment can be described thus: Binding to DQ8 antigens.
The test system of experiment [2] is Insulin specific NOD T cell clone PD12-4.4. The experiment can be described thus: Proliferation of insulin-specific NOD T cell clone PD12-4.4. Format: cell-based, mouse (NOD). The following applies: 50 μg/ml peptide, 72 h, 3H-thymidine; no antigen 350 cpm. How it is done:
(§1) Insulin specific NOD T cell lines were established by culturing lymphocytes isolated from islet-infiltrating populations by in vitro stimulation with either porcine insulin at 25 μg/ml and irradiated NOD islet cell in the presence of irradiated NOD spleen cells as antigen presenting cells and cytokines. To obtain the infiltrating lymphocytes the following procedures were performed (see Wegmann et al., Eur. J. Immunol. 24:1853, 1994): the pancreas from the NOD mouse was digested with collagenase and individual islets were isolated manually. The infiltrating lymphocytes were then obtained by mild trypsin digestion of the islets. The insulin specific T cell lines or clones were propagated by serial stimulation in the presence of NOD spleen cells, porcine insulin and lymphokines. Clones were obtained by limiting dilution of the B chain (9-23) specific T cell lines in the presence of the antigen presenting cells and porcine insulin at 25 μg/ml. Wells with a growing population of cells following limiting dilution were expanded in appropriate medium, and after one cycle of growth were tested for reactivity to the B chain (9-23) peptide of insulin by evaluating the proliferative response.
(§2) Insulin B chain (9-23) (SEQ ID NO:2) specific mouse (NOD) T cell clones were isolated from infiltrated islets as described in Example 2. Peptide analogues with single alanine substitutions were prepared as described in Example 1. The effect of each analogue on T cell proliferation was then evaluated using an assay performed in 96-well flat bottom microtiter plates (see Daniel et al., Eur. J. Immunol. 25:1056, 1995). Briefly 25,000 T cell clones along with 1 million irradiated NOD spleen cells were cultured in the presence of 50 μg/ml of insulin B chain 9-23 peptide or any of the alanine substituted peptides listed below in triplicate sets. The plates were incubated for a total of 72 hours in 7% carbon dioxide atmosphere with a pulse of 1 μCi/well of tritiated thymidine for the last 6-8 hours of culture. Cells were harvested on a glass fiber filter and the associated radioactivity was counted in a liquid scintillation counter. Results are expressed as mean counts per minute of triplicate wells.

Experiment [3] deals with Insulin specific NOD T cell clone PD6-4.3. The experiment can be described thus: Proliferation of insulin-specific NOD T cell clone PD6-4.3. Format: cell-based, mouse (NOD). The conditions noted are these: 50 μg/ml peptide, 72 h, 3H-thymidine; no antigen 163 cpm. The method, then: as §1, §2
Experiment [4] has as its system Insulin specific NOD T cell clone PD12-4.29. The experiment can be described thus: Proliferation of insulin-specific NOD T cell clone PD12-4.29. Format: cell-based, mouse (NOD). The following applies: 50 μg/ml peptide, 72 h, 3H-thymidine; no antigen 789 cpm. How it is done:
as §1, §2

The test system of experiment [5] is Insulin specific NOD T cell clone PD12-4.34. The experiment can be described thus: Proliferation of insulin-specific NOD T cell clone PD12-4.34. Format: cell-based, mouse (NOD). The following applies: 50 μg/ml peptide, 72 h, 3H-thymidine; no antigen 231 cpm. The method, then: as §1, §2
[6] abbreviates: soluble NBI-6024 induced T cells cultured with NBI-6024 5 μM.
[7] abbreviates: soluble NBI-6024 induced T cells cultured with NBI-6024 25 μM.

On to “NBI-6024: insulin B chain 9-23 with alanine substitutions at positions 16 and 19 (SHLVEALALVAGERG)”, for which the Cytokine production profile entry in experiment [1] (NBI-6024 emulsified with CFA (control)) was “did induce the expected Th1-cytokine profile (IL-2)”; in experiment [1] (T cells from mice immunized with soluble NBI-6024), “produced the Th2 cytokines, interleukin-4 (FIG. 18) and interleukin-5 (Table 8), and not the Th1-derived interleukin-2”. Besides, the “Cytokine IL-4” value in experiment [1] (soluble NBI-6024 induced T cells cultured with NBI-6024 1 μM, 0: 134 ± 0) was 684 ± 92 pg/mL; in experiment [1] (setting [6]) it was 1,653 ± 51 pg/ml; in experiment [1] (setting [7]), 2,102 ± 85 pg/ml. The “Cytokine IL-5” value is on record as 9,999 ± 503 pg/ml in experiment [1] (soluble NBI-6024 induced T cells cultured with NBI-6024 1 μM, 0: 1,814 ± 332); 23,496 ± 684 pg/ml in experiment [1] (setting [6]); 28,062 ± 141 pg/ml in experiment [1] (setting [7]). Moreover, the “Cytokine IL-2” value in experiment [1] (soluble NBI-6024 induced T cells cultured with NBI-6024 1 μM), in experiment [1] (setting [6]) and in experiment [1] (setting [7]) was <15 pg/mL in each case. Further, the “Binding affinity to DQ8 antigens” value with DQ8 antigens is reported as “binds with similar affinity”.
Regarding “Native 9-23: native peptide, residues 9-23 of human insulin B chain (SEQ ID NO:2) (SHLVEALYLVCGERG; Residues 9-23 of human insulin B chain; listed as Homo sapiens) [reference compound]”, in experiment [2], the “Response (cpm) of T cell clone PD12-4.4” value is 10000 cpm. Moreover, the “Response (cpm) of T cell clone PD6-4.3” value in experiment [3] is recorded as 10463 cpm. In experiment [4], the “Response (cpm) of T cell clone PD12-4.29” value came to 14820 cpm. Moreover, in experiment [5], the “Response (cpm) of T cell clone PD12-4.34” value came out at 3614 cpm.
